Values quoted from earlier work in patent US12156898B2, “Formulations of terlipressin” (BIOVIE Inc., priority 2019, dated 2024).
Bridge positions count the residues as written; N and C are the ends. Peptide text beside a SMILES is read from it.

Columns and labels:
patients = settings: human, in vivo
[1] = in vivo

half-life [1]: short half-life
Compound: NCCCC[C@H](NC(=O)[C@@H]1CCCN1C(=O)[C@@H]1CSSC[C@H](NC(=O)CNC(=O)CNC(=O)CN)C(=O)N[C@@H](Cc2ccc(O)cc2)C(=O)N[C@@H](Cc2ccccc2)C(=O)N[C@@H](CCC(N)=O)C(=O)N[C@@H](CC(N)=O)C(=O)N1)C(=O)NCC(N)=O [terlipressin] (H-GGGCYFQNCPKG-NH2; disulfide 4-9)
severe side effects requiring discontinuation of treatment, share of patients (patients): up to 10%
side effects, share of patients (patients): up to 40%
